Data published in patent US4921871A, “Enolamides, pharmaceutical compositions and methods of use thereof for treating inflammation” (Warner-Lambert Company, priority 1987, dated 1990).
pIC50: −log10 of the molar value. Values joined by “and” are separate entries in the source; they are usually repeats but may differ in a detail not shown here. Identical values can stand only once. Each block holds one compound with its values, some of them ahead of it.

Tests used:
[1] = target: T1, leukotriene receptor (Cavia porcellus, UniProt Q2NNR5); experiment: Binding of 3H-Leukotriene D4 to Guinea Pig Lung Membranes (RBL)
T1 construct: Two pairs of lungs (1.3 g) from freshly sacrificed 300 g male guinea pigs; tissue Kuiper Rabbit Farm, Gary, Ind; (animals); host or cells: guinea pig lung, crude membranes
T1 sequence (Q2NNR5 1-340): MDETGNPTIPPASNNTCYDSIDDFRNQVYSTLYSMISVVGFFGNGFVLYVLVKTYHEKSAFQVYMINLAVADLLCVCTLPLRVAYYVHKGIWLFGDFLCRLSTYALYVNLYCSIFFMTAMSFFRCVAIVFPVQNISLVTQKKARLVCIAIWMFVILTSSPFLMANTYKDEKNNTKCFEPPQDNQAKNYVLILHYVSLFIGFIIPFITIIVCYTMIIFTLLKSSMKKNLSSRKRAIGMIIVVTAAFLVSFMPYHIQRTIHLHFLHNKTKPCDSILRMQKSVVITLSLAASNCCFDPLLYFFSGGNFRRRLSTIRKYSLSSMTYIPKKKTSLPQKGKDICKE
Method: Additionally, the activity, of the compounds having the Formula I of the present invention is determined by the well known leukotriene receptor binding assay that is described by R. F. Bruns, W. J. Thomsen and T. A. Pugsley in Life Sciences, 33, 645 (1983) or the Herxheimer in vivo antiallergy test described in H. Herxheimer, J. Physiol. (London), Vol. 177, p. 251 (1952).
[14,15-^3 H]leukotriene D4 (^3 H-LTD4) (25 Ci/mmol and 40 Ci/mmol) is purchased from New England Nuclear. Unlabeled LTC4 is a gift of Ono Pharmaceuticals (Japan). LTC4, LTD4, and LTE4 are purchased as methyl esters from Paesel GmbH (Frankfurt, W. Germany). Concentrations of the Paesel leukotrienes are calculated from their absorbance at 280 nm. Leukotriene esters are saponified overnight under N2 in 3.3% potassium carbonate at room temperature. Tritiated leukotrienes are stored as received from New England Nuclear at -20° C. Ono LTC4 (5 μg/ml) is stored at -60° C. in phosphate buffer pH - 6.8. Saponified Paesel leukotrienes are stored at -60° C. in 3.3% potassium carbonate (pH 9.0-9.5). Aliquots of leukotrienes are taken from stock solutions immediately after thawing, after which the stock solutions are immediately refrozen. 2-Amino-2-(hydroxymethyl)-1,3-propanediol (Tris) is Sigma pH 7.7 pre-set crystals, and dimethylsulfoxide is Aldrich Gold Label. Preparation of crude lung membranes
Two pairs of lungs (1.3 g) from freshly sacrificed 300 g male guinea pigs (older animals gave substantially lower binding) from Kuiper Rabbit Farm, Gary, Ind. are disrupted with a Polytron PT 10 (setting 4) for 30 seconds in 20 ml ice-cold 50 mM Tris adjusted with HCl to pH 7.7 at 25° C. (Tris buffer), filtered through a single layer of gauze to remove connective tissue, and centrifuged at 50,000 xg for ten min. The pellet is resuspended by homogenization with a Polytron in 20 ml Tris buffer, centrifuged at 50,000 xg for ten min., resuspended, incubated at 37° C. for 30 minutes, and centrifuged again. The final pellet is resuspended in Tris buffer and either used fresh or stored at -70° C.
All incubations are in triplicate for 60 minutes at 25° C. in 12×75 mm polystyrene tubes containing 1 ml Tris buffer with 20 mg original tissue wet weight of guinea pig lung membranes, 0.2 nM ^3 H-LTD4 (6,000-11,000 cpm), 10 mM MgCl2, and 1% dimethylsulfoxide. Leukotrienes are diluted in Tris buffer. All other test compounds dissolved at 10 mM in dimethylsulfoxide on the same day as the experiment, and diluted in dimethylsulfoxide to 100× the final incubation concentration. Control incubations receive an equal volume (10 μl) of dimethylsulfoxide; the resulting concentration of dimethylsulfoxide had no effect on binding. ^3 H-LTD4 is diluted to 2 nM in Tris buffer. The membrane suspension (20 mg/0.89 ml) contains sufficient MgCl2 to give 10 mM final concentration in the incubation. […] All additions are performed at 0° C. Immediately after the last addition, the incubation is initiated by agitating the rack of tubes on a vortex mixer and warming to 25° C. in a water bath. Tubes are vortexed at least once more during the incubation to ensure that the membranes remained suspended. Incubations are terminated after 60 minutes by filtering under reduced pressure through 25 mm Whatman GF/B filters followed by rapid washing three times with 4 ml of ice-cold Tris buffer. Filters are added to scintillation vials with 8 ml Formula 947 (New England Nuclear), left overnight, shaken, and the radioactivity counted in a scintillation counter (efficiency 40%). Nonspecific binding, defined as binding of ^3 H-LTD4 in the presence of 100 nM LTC4, is 300-500 cpm for all lots of ^3 H-LTD4. Binding to the filters in the absence of tissue is about 100 cpm, and is not affected by unlabeled LTC4. Specific binding, defined as total binding minus nonspecific binding, varied considerably from lot to lot of ^3 H-LTD4. […]

[2] = tested on: Human Leukocyte Lipoxygenase; experiment: Human Leukocyte Lipoxygenase Assay (LDA-H); assay type: biochemical
Method: Whole blood is collected from normal volunteers and spun in a refrigerated centrifuge for four minutes at 1°-6° C. at 3800 g. The buffy coat is manually separated and washed twice with chilled 0.83% NH4 Cl and centrifuged at 1000 RPM for ten minutes at 4° C. The white cell is suspended in culture media-EMEM supplemented with 6% Agamma human serum, tricine buffer, and neomycin and recentrifuged at 1000 g to yield a pellet containing the leukocytes used for the preparation of the acetone pentane powder.
The acetone-pentane powder is prepared utilizing a modification of the procedure reported for human platelet lipoxygenase. See Siegel, et al, Arachidonate Metabolism via Lipoxygenase and 12-L-hydro-peroxy-5 Eicosatetraenoic Acid Peroxidase Sensitive to Antiinflammatory Drugs, Proc. Natl. Acad. Sci., U.S.A. 77:308, 1980 and D. P. Wallach and V. R. Brown, A Novel Preparation of Human Platlet Lipoxygenase, Biochem. Biophys. Acta. 663:361, 1981. Buffy coat prepared above is resuspended in 5-7 volumes of cold 0.1M Tris buffer, pH 7.4 containing 0.154M NaCl. The suspension is centrifuged at 13,300 g for ten minutes at 4° C. The resultant pellet is retained, resuspended in five volumes of cold acetone, recentrifuged at 13,300 g and resuspended in five volumes of cold pentane. The pentane suspension is centrifuged for ten minutes at 13,300 g to give a pellet which is dried in the cold under vacuum with periodic pulverization. The dry powder is stable for several weeks when stored at -80° C.
Enzyme stock solution is prepared in the following manner. About 15 mg of the acetone-pentane powder is suspended in 4 ml of cold tris buffer (0.1M, pH 7.4), allowed to stand for five minutes, and homogenized thoroughly. The homogenate is sonicated three times for 15 seconds each time, diluted to 7 ml with cold tris buffer (0.1M, pH 7.4), and centrifuged at 4° C. for 60 minutes at 13,300 g. The supernatent is retained and diluted to a total of 10 ml with cold tris buffer (0.1M, pH 7.4) to give the stock enzyme solution. Additional dilutions of 2-50 fold are done as necessary to locate optimal enzyme reaction rate in the assay described below.
Substrate solution is prepared at 100 μM or 1.0 μM concentrations of arachidonic acid or linoleic acid in 0.1M tris buffer, pH 9.0 containing 20% ethanol.
The enzyme reaction is followed spectrophotometrically by the appearance of a conjugated diene product at 234 nm. The reaction is monitored at 24° C. using a Gilford Model 2600 spectrophotometer. […] The effects of inhibitors on the reaction are compared with control reactions run under indentical conditions. Routinely, each compounds of the present invention is incubated with the enzyme for five minutes prior to addition of substrate to initiate the reaction. Inhibition expressed as IC50 as molar concentration of the compound required to reduce reaction rate to 50% control.

RBL, % Inhibition ([1]; 1.00 E -4 M): 25.0%
SMILES: COc1ccc(CCc2ccc(NC(=O)C(=O)c3sc4ccc(Cl)cc4c3O)cc2)cc1OC [Example 139, Benzo[b]thiophene-2-acetamide, 5-chloro-N-[4-[2-(3,4-dimethox-yphenyl)ethyl]phenyl]-3-hydroxy-α-oxo]

RBL, % Inhibition ([1]; 1.00 E -4 M): 12.0%
SMILES: O=C(Nc1ccc(CCc2ccc(Cl)cc2)cc1)C(=O)c1sc2ccccc2c1O [Example 137, Benzo[b]thiophene-2-acetamide, N-[4-[2-(4-chlorophenyl)ethyl]phenyl]-3-hydroxy-α-oxo]

RBL, % Inhibition ([1]; 1.00 E -4 M): 78.0% and 81.0%
RBL, % Inhibition ([1]; 1.00 E -5 M): 7.0%
RBL, % Inhibition ([1]; 2.00 E -5 M): 27.0%
RBL, % Inhibition ([1]; 2.00 E -6 M): 6.0%
RBL, % Inhibition ([1]; 3.15 E -5 M): 80.0%
RBL, % Inhibition ([1]; 5.00 E -5 M): 59.0%
RBL, % Inhibition ([1]; 5.00 E -6 M): 3.0%
LDAH, % Inhibition ([2]; 2.50 E -5 M): 0.0%
SMILES: O=C(Nc1ccc(CCc2cc(O)c(O)c(O)c2)cc1)C1=C(O)c2ccccc2S(=O)(=O)C1 [Example 36]

pIC50 ([1]; 0.2 nM 3H-LTD4, guinea pig lung membranes, 60 min, 25 °C, read-out: RBL, concentration for 50% inhibition (IC)): 4.58
LDAH, % Inhibition ([2]; 2.50 E -5 M): 0.0%
LDAH, % Inhibition ([2]; 8.00 E -5 M): 0.0%
SMILES: O=C(Nc1ccc(CCc2ccccc2O)cc1)C1=C(O)c2ccccc2S(=O)(=O)C1 [Example 38]

RBL, % Inhibition ([1]; 1.00 E -4 M): 43.0%
SMILES: CCCCCCCCCCc1ccc(NC(=O)C(=O)c2sc3ccc(Cl)cc3c2O)cc1 [Example 135, Benzo[b]thiophene-2-acetamide, 5-chloro-N-(4-decylphenyl)-3-hydroxy-α-oxo]

RBL, % Inhibition ([1]; 1.00 E -5 M): 6.0%
RBL, % Inhibition ([1]; 1.00 E -6 M): 5.0%
RBL, % Inhibition ([1]; 2.00 E -5 M): 12.0%
RBL, % Inhibition ([1]; 2.00 E -6 M): 10.0%
RBL, % Inhibition ([1]; 5.00 E -5 M): 11.0%
RBL, % Inhibition ([1]; 5.00 E -6 M): 13.0%
SMILES: CN(C)c1ccc(CCc2ccc(NC(=O)C3CS(=O)(=O)c4ccccc4C3=O)cc2)cc1 (stereo not shown) [Example 55]

RBL, % Inhibition ([1]; 1.00 E -4 M): 0.0%
SMILES: O=C(O)c1ccc(CCc2ccc(NC(=O)C3CS(=O)(=O)c4ccccc4C3=O)cc2)cc1 (stereo not shown) [Example 12, 4-[2-[4-[[(3,4-Dihydro-4-oxo-2H-1-benzothiopyran-3-yl)carbonyl]amino]phenyl]ethyl]benzoic acid, 1,1-dioxide]

RBL, % Inhibition ([1]; 1.00 E -4 M): 30.0%
SMILES: O=C(Nc1ccc(CCc2ccc(Cl)cc2)cc1)c1sc2ccccc2c1O [Example 145, Benzo[b]thiophene-2-carboxamide, N-[4-[2-(4-chlorophenyl)ethyl]phenyl]-3-hydroxy]
